{ppp} = triphosphate
B1: poly-U/UC PAMP: ~100 nt PAMP motif from the HCV genome comprising 5′ppp and the poly U/UC region, recognized by RIG-I; formulated in liposome (nucleic acid)
chain: GGCCAUCCUGUUUUUUUCCCUUUUUUUUUUUCUUUUUUUUUUUUUUUUUUUUUUUUUUUUUUUUUUCUCCUUUUUUUUUCCUCUUUUUUUCCUUUUCUUUCCUUU
modifications: RNA, 5' {ppp}, backbone and methylation of C not given here; formulated in liposome
notes: ~100 nt PAMP motif from the HCV genome comprising 5′ppp and the poly U/UC region, recognized by RIG-I; formulated in liposome

Experiments:
HBV cccDNA = test: Decay kinetics of established cccDNA and HBsAg secretion under treatment from 3 dpi to 20 dpi; type: cell-based, HBV (Genotype D); conditions: HepG2-hNTCP; for production and secretion of HBsAg / cccDNA levels over treatment time course (Southern blot, qPCR): treatment from 3 dpi through 20 dpi; for cccDNA levels over treatment time course (Southern blot, qPCR) / delay before cccDNA starts decreasing (τ) / half-life of cccDNA (t1/2): ETV 500 nM, F7 10 μM, poly-U/UC 100 ng/ml; for delay before cccDNA starts decreasing (τ) / half-life of cccDNA (t1/2): treatment from 3 dpi, model fit of RT-qPCR data, three replicates
Description: (5A) HBV infection and treatment schedule. On day 0 HepG2-hNTCP cells were infected with HBV at moi of 1000 Geq/cell, incubated for 24 hr, and media was replaced. On day three the cells were harvested or treated with DMSO, ETV (500 nM), F7 (10 μM), poly-U/UC (100 ng/ml), or with ETC combination with F7 or poly-U/UC, PAMP. Cells were harvested at the indicated points over a 20-day time course. (5B), (5C) DNA was isolated by Hirt extract and subjected to Southern blot analysis using an HBV-specific DNA probe. Percentage values below each lane indicate the relative amount of cccDNA compared to day three control prior to each treatment. The positions of mass markers are indicated. (5D) cccDNA levels were measured by RT-qPCR. Relative cccDNA values to mitochondrial DNA (MT-CO3) are shown. Statistical significance was determined using Student's t test. Data are presented as mean standard deviation (SD), *P<0.01, **P<0.005, ***P<0.001 and ns=non-significant (E) Half-life of cccDNA from RT-qPCR analyses was estimated from the simultaneous fitting of three replicates under each treatment strategy. C(t) is the % values of cccDNA at time ‘t’ post-treatment, C(0) is the % values of cccDNA at the start of the treatment. (5F) HBsAg across the time course for each treatment series. Statistical significance as determined using Student's t test. Data are presented as mean standard deviations (SD), **P<0.005, and ns=non-significant.
ETV is a nucleoside analog that prevents the viral reverse transcription and replication of new synthesized HBV DNAs, thereby preventing the replenishment of cccDNA by de novo formation. ETV was applied to HBV-infected cultures at a 100-fold IC50 (Langley, D. R., et al. (2007). Inhibition of Hepatitis B Virus Polymerase by Entecavir. Journal of virology 81, 3992-4001) thereby allowing for the measurement of cccDNA half-life under conditions in which levels are sustained only from the initial cccDNA pool. Cells were then harvested over a treatment time course, and DNA extracts were analyzed by Southern blot and qPCR assay. […] J Hepatol 69, 1231-1241). […] Enhanced cccDNA decay kinetics by F7 treatment was also confirmed by RT-PCR analysis (FIG. 5D). […] Thus, F7 and poly-U/UC PAMP impart the therapeutic decay of established cccDNA.
Reverse transcription quantitative real time qPCR (RT-qPCR) analysis: Total cellular RNAs were extracted from cells using TRIZOL reagent and the manufacturers protocol (Invitrogen). cDNA was synthesized from the purified RNA by both random and oligo (dT) priming using iScript select cDNA synthesis kit (Biorad, Inc.). For HBV cccDNA expression analysis, total DNA was extracted using the DNeasy kit (QIAGEN). For selective cccDNA PCR analysis, isolated DNAs were treated with 10 Units of T5 exonuclease (NEB) for 30 min in 10 μl of reaction volume in 37° C., followed by heat-inactivation at 95° C. for 5 min and 4-fold dilution with Nuclease-free water. For extra-cellular HBV DNA quantification, an external HBV plasmid standard was used to program the PCR (Ko, C., et al. (2018), supra).

RIG-I = test: IRF3 activation in RIG-I or MDA5 knockout HepG2-hNTCP cells (immunoblot); type: cell-based, human; conditions: 24 hours
Description: FIGS. 6A-6D illustrate that F7 and poly-U/UC PAMP specifically signal IRF3 activation through RIG-I to suppress HBV cccDNA. (6A) F7 was administered for 24 hours to HepG2-hNTCP-NT (expressing non-targeting guide RNA), RKO (RIG-I knockout expressing RIG-I-targeting guide RNA), and MKO (MDA5-knock out expressing MDA5-targeting guide RNA). Cells were harvested and analyzed by immunoblot. The levels of protein expression by p-IRF3 (S386 phosphorylated, active IRF3), IRF3 (total IRF), IFIT1, RIG-I, and MDA5 relative to the expression level of tubulin were determined using respective antibodies. (6B) HepG2-hNTCP-NT, RKO, and MKO cells were treated with 100 ng,/ml of X-RNA or 100 ng/ml or 200 ng/ml of poly-U/UC PAMP for 24 hr. Cells were harvested and analyzed by immunoblot as in (6A). (6C and 6D) Cells were infected with HBV at moi of 1000 Geq/cell. After 24 hour cultures were treated with DMSO (−; negative control), CsA (treatment control), (6C) 10 μM) or F7 or (6D) X RNA or poly-U/UC PAMP. Three days later the cells were harvested, Hirt extracts prepared and subjected to Southern blot analysis using as HBV-DNA probe. The positions of mass markers are indicated. Values beneath each lane show percent cccDNA remaining compared to control treatment.
In order to ascertain whether the activation of IRF3 and suppression of cccDNA in HBV-infected cells by F7 or poly-U/UC PAMP treatment was dependent on RIG-I rather than occurring as an off-target effect of IRF3 agonist treatment, HepG2-hNTCP cells expressing non-targeting guide RNA (HepG2-hNTCP-NT), or guide RNA for knockout (KO) of RIG-I expression (HepG2-hNTCP-RKO) or MDA5 (HepG2-hNTCP-MKO) were produced using CRISPR/Cas9 genome editing technology. […] Next, each cell population was infected with HBV followed by a single treatment with F7 or poly-U/UC PAMP at 1 dpi. Cells were harvested at 3 dpi for Southern blot analysis of cccDNA levels. Parallel cultures of each cell population were treated with DMSO or single dose X-RNA (negative control) or with CsA as a treatment control. […]

[1] = HepG2-hNTCP-RKO (RIG-I knockout) cells

| Molecule | production and secretion of HBsAg (HBV cccDNA) | cccDNA levels over treatment time course (Southern blot, qPCR) (HBV cccDNA) | delay before cccDNA starts decreasing (τ) (HBV cccDNA) [days] | half-life of cccDNA (t1/2) (HBV cccDNA) [h] | phosphorylated/activated IRF3 and IFIT1 expression (RIG-I; HepG2-hNTCP-NT control and HepG2-hNTCP-MKO (MDA5 knockout) cells) | phosphorylated/activated IRF3 and IFIT1 expression (RIG-I; [1]) |
| --- | --- | --- | --- | --- | --- | --- |
| O=C(Nc1ccc2nc(NC(=O)c3ccc4ccccc4c3)sc2c1)c1ccccc1 [F7, N-(6-benzamido-1,3-benzothiazol-2-yl)naphthalene-2-carboxamide] | suppressed HBsAg secretion | stimulated the decay of cccDNA | 4.0 | 209 | fully respond to F7 | do not respond to treatment |
| B1 | suppressed HBsAg secretion | reduced the cccDNA abundance | 3.8 | 185 |  | do not respond to treatment |

Reference: US20220241314A1, “COMPOSITIONS AND METHODS FOR TREATMENT OF HEPATITIS B VIRUS INFECTION” (priority 2019, published 2022)
